Experimental data as given in patent US20080220103A1, “METHOD FOR TREATING/CONTROLLING/KILLING FUNGI AND BACTERIA ON LIVING ANIMALS” (priority 2005, published 2008).
Values after ≈ are worked out from the molar mass of the structure shown. Values joined by “and” are separate entries in the source; they are usually repeats but may differ in a detail not shown here. Equal entries are not always repeated. Where two headings read alike, the source gives them in different places.

Tests used:
[1] = test system: E. floccosum; assay: MIC, modified CLSI M38A broth dilution; assay type: cell-based, Epidermophyton floccosum
Method: (§1) Minimum Inhibitory Concentration (MIC): Minimum inhibitory concentrations of synthetic and semisynthetic and natural products against dermatophytes were determined using a modification of the Clinical Laboratory Standards Institute (CLSI, formerly National Committee of Clinical Laboratory Standards, NCCLS) M38A standard method for dermatophytes, while MIC of these agents against Candida species were determined using the CLSI M27-A2 methodology. The method used to determine the MIC against bacteria was based on the CLSI document M7-A7.
(§2) For dermatophytes, serial dilutions of terbinafine, tolnaftate were prepared in a range of 0.004-2 μg/ml, while for miconazole concentrations ranged between 0.015-8 μg/ml. Finally, for essential oils, the concentrations tested were between 0.03-16 μg/ml. The only exception was tea tree oil where dilutions were prepared in a range of 0.0078-4 μg/ml. The MIC was read at 4 days post inoculation and defined as the lowest concentration of an agent to inhibit 80% of fungal growth as compared to the growth control (Table 2).

[2] = test system: T. mentagrophytes; assay: MIC, modified CLSI M38A broth dilution; assay type: cell-based, Trichophyton mentagrophytes
Method: as §1, §2

[3] = test system: All dermatophytes; assay: MIC, modified CLSI M38A, pooled dermatophytes; assay type: cell-based, E. floccosum, T. rubrum, T. mentagrophytes
Method: as §1, §2
(§3) In the following Tables, MIC50 and MIC90 are defined as the minimal concentrations of a compound that can inhibit 50% and 90% of the tested organisms, respectively.

[4] = test system: E. floccosum; assay: Minimum fungicidal concentration (Canton et al.); assay type: cell-based, Epidermophyton floccosum; details: for MFC: Epidermophyton floccosum
Method: (§4) Minimum fungicidal concentration (MFC): The minimum fungicidal concentrations of various agents were determined using the technique described by Canton et al. (Antimicrob Agents Chemother. 2004 8:2477-82). In that method, fungal conidia were collected following growth on potato dextrose agar (PDA) plates and were used to inoculate 96-well plates containing different concentrations of agents. Following incubation at 35° C. for 4 days (for dermatophytes) or 24 hours (for yeast), wells showing no visible growth were cultured to determine the MFC (defined as the lowest concentration of a given agent that kills>99.999% of fungal conidia or spores). The MFC value represents the level of the agent at which spores or conidia were killed.

[5] = test system: T. rubrum; assay: Minimum fungicidal concentration (Canton et al.); assay type: cell-based, Trichophyton rubrum; details: for MFC: Trichophyton rubrum
Method: as §4

[6] = test system: T. mentagrophytes; assay: Minimum fungicidal concentration (Canton et al.); assay type: cell-based, Trichophyton mentagrophytes; details: for MFC: Trichophyton mentagrophytes
Method: as §4

[7] = test system: All dermatophytes; assay: Minimum fungicidal concentration, pooled dermatophytes; assay type: cell-based, E. floccosum, T. rubrum, T. mentagrophytes; details: All dermatophytes, n = 18
Method: as §4, §3

[8] = test system: C. parapsilosis; assay: MIC, CLSI M27-A2; assay type: cell-based, Candida parapsilosis
Method: as §1
(§5) The remaining essential oils were prepared in a dilution range of 0.03-16 μg/ml. For Candida the MIC was read at 24 hours and defined as the lowest concentration to inhibit 50% of fungal growth as compared to the growth control (Table 4).

[9] = test system: All yeasts; assay: MIC, CLSI M27-A2, pooled yeasts; assay type: cell-based, C. albicans, C. parapsilosis; details: n = 12
Method: as §1, §5, §3

[10] = test system: S. aureus; assay: MIC, CLSI M7-A7, Mueller-Hinton; assay type: cell-based, Staphylococcus aureus
Method: as §1
(§6) For bacterial species, the medium used to evaluate the antibacterial activity of agents and essential oils was Mueller-Hinton (Oxoid Ltd., Basingstoke, Hampshire, England). Serial dilutions of miconazole, terbinafine, and tolnaftate were prepared in a range of 0.125-64 μg/ml and serial dilutions of tea tree oil were prepared in a range of 0.0078-4 μg/ml, while those for the rest of the essential oils were prepared in a range 0.031-16 μg/ml.

[11] = test system: S. epidermidis; assay: MIC, CLSI M7-A7, Mueller-Hinton; assay type: cell-based; details: for MIC: read-out: MIC
Method: as §1, §6

[12] = test system: All bacteria (Staphylococcus species); assay: MIC, CLSI M7-A7, pooled bacteria; assay type: cell-based, S. aureus, S. epidermidis
Method: as §1, §6, §3

[13] = Epidermophyton floccosum, E. floccosum, n = 6
[14] = Trichophyton mentagrophytes, T. mentagrophytes, n = 6
[15] = Lodderomyces parapsilosis, C. parapsilosis, n = 6
[16] = Staphylococcus aureus, S. aureus
[17] = Staphylococcus epidermidis, S. epidermidis, n = 6

- MIC Range ([1]; E. floccosum, n = 6): 0.03 to 0.06 µg/mL
- MIC ([1]; Epidermophyton floccosum, E. floccosum strain 1666): 0.06 µg/mL (≈ 0.206 µM)
- MIC ([1]; Epidermophyton floccosum, E. floccosum strain 1798): 0.03 µg/mL (≈ 0.103 µM)
- MIC ([1]; Epidermophyton floccosum, E. floccosum strain 1925): 0.03 µg/mL (≈ 0.103 µM)
- MIC ([1]; Epidermophyton floccosum, E. floccosum strain 1926): 0.06 µg/mL (≈ 0.206 µM)
- MIC ([1]; Epidermophyton floccosum, E. floccosum strain 1961): 0.06 µg/mL (≈ 0.206 µM)
- MIC ([1]; Epidermophyton floccosum, E. floccosum strain 2165): 0.06 µg/mL (≈ 0.206 µM)
- MIC50 [1, 13]: 0.06 µg/mL (≈ 0.206 µM)
- MIC90 [1, 13]: 0.06 µg/mL (≈ 0.206 µM)
- MIC Range ([2]; T. mentagrophytes, n = 6): 0.004 to 0.03 µg/mL
- MIC ([2]; Trichophyton mentagrophytes, T. mentagrophytes strain 1720): 0.004 µg/mL (≈ 0.0137 µM)
- MIC ([2]; Trichophyton mentagrophytes, T. mentagrophytes strain 2124): 0.03 µg/mL (≈ 0.103 µM)
- MIC ([2]; Trichophyton mentagrophytes, T. mentagrophytes strain 2125): 0.03 µg/mL (≈ 0.103 µM)
- MIC ([2]; Trichophyton mentagrophytes, T. mentagrophytes strain 2126): 0.004 µg/mL (≈ 0.0137 µM)
- MIC ([2]; Trichophyton mentagrophytes, T. mentagrophytes strain 2127): 0.03 µg/mL (≈ 0.103 µM)
- MIC ([2]; Trichophyton mentagrophytes, T. mentagrophytes strain 2128): 0.03 µg/mL (≈ 0.103 µM)
- MIC50 [2, 14]: 0.03 µg/mL (≈ 0.103 µM)
- MIC90 [2, 14]: 0.03 µg/mL (≈ 0.103 µM)
- MIC50 ([3]; n = 18): 0.03 µg/mL (≈ 0.103 µM)
- MIC90 ([3]; n = 18): 0.06 µg/mL (≈ 0.206 µM)
- MIC Range ([3]; n = 18): 0.015 µg/mL and 0.008 to 0.015 µg/mL
- MIC Range ([3]; n = 18, listed as terbinafine): 0.008 to 0.06 µg/mL
- MIC Range ([8]; C. parapsilosis, n = 6): 0.25-0.25 μg/mL
- MIC Range ([8]; C. parapsilosis, n = 6, listed as terbinafine): 0.25 µg/mL (≈ 0.858 µM)
- MIC ([8]; Lodderomyces parapsilosis, C. parapsilosis strain 7629): 0.25 µg/mL (≈ 0.858 µM)
- MIC ([8]; Lodderomyces parapsilosis, C. parapsilosis strain 7668): 0.25 µg/mL (≈ 0.858 µM)
- MIC ([8]; Lodderomyces parapsilosis, C. parapsilosis strain 7672): 0.25 µg/mL (≈ 0.858 µM)
- MIC ([8]; Lodderomyces parapsilosis, C. parapsilosis strain 7995): 0.25 µg/mL (≈ 0.858 µM)
- MIC ([8]; Lodderomyces parapsilosis, C. parapsilosis strain 8148): 0.25 µg/mL (≈ 0.858 µM)
- MIC ([8]; Lodderomyces parapsilosis, C. parapsilosis strain 8442): 0.25 µg/mL (≈ 0.858 µM)
- MIC50 [8, 15]: 0.25 µg/mL (≈ 0.858 µM)
- MIC90 [8, 15]: 0.25 µg/mL (≈ 0.858 µM)
- MIC50 [9]: 0.25 µg/mL (≈ 0.858 µM)
- MIC90 [9]: 2 µg/mL (≈ 6.86 µM)
- MIC ([10]; S. aureus strain 733): >64 µg/mL
- MIC ([10]; S. aureus strain 734): >64 µg/mL
- MIC ([10]; S. aureus strain 8470): >64 µg/mL
- MIC Range ([10]; S. aureus, n = 6): >64 µg/mL
- MIC50 [10, 16]: > 64 µg/mL
- MIC90 [10, 16]: > 64 µg/mL
- MIC ([10]; Staphylococcus aureus, S. aureus strain 730, 80% inhibition, 16 h, read-out: MIC): > 64 µg/mL
- MIC ([10]; Staphylococcus aureus, S. aureus strain 732, read-out: MIC): > 64 µg/mL
- MIC Range ([11]; S. epidermidis, n = 6): >64 µg/mL
- MIC ([11]; Staphylococcus epidermidis, S. epidermidis strain 8472): > 64 µg/mL
- MIC ([11]; Staphylococcus epidermidis, S. epidermidis strain 8473): > 64 µg/mL
- MIC ([11]; Staphylococcus epidermidis, S. epidermidis strain 8474): > 64 µg/mL
- MIC ([11]; Staphylococcus epidermidis, S. epidermidis strain 8475): > 64 µg/mL
- MIC ([11]; Staphylococcus epidermidis, S. epidermidis strain 8476): > 64 µg/mL
- MIC ([11]; Staphylococcus epidermidis, S. epidermidis strain 8477): > 64 µg/mL
- MIC50 [11, 17]: > 64 µg/mL
- MIC90 [11, 17]: > 64 µg/mL
- MIC50 ([12]; Staphylococcus, n = 12): > 64 µg/mL
- MIC90 ([12]; Staphylococcus, n = 12): > 64 µg/mL
- MIC Range ([12]; n = 12): >64 µg/mL
- MIC Range ([12]; n = 12, listed as TERBINAFINE): >64 µg/mL
- MIC Range ([12]; n = 12, listed as terbinafine): > 64 µg/mL
Structure (SMILES): CN(C/C=C/C#CC(C)(C)C)Cc1cccc2ccccc12 [Terbinafine, terbinafine]
- MFC range (row MIC Range) ([4]; E. floccosum, n = 6): 0.03 to 0.125 µg/mL
- MFC ([4]; E. floccosum strain 1666, read-out: MFC): 0.06 µg/mL (≈ 0.206 µM)
- MFC ([4]; E. floccosum strain 1798, read-out: MFC): 0.03 µg/mL (≈ 0.103 µM)
- MFC ([4]; E. floccosum strain 1925, read-out: MFC): 0.06 µg/mL (≈ 0.206 µM)
- MFC ([4]; E. floccosum strain 1926, read-out: MFC): 0.06 µg/mL (≈ 0.206 µM)
- MFC ([4]; E. floccosum strain 1961, read-out: MFC): 0.125 µg/mL (≈ 0.429 µM)
- MFC ([4]; E. floccosum strain 2165, read-out: MFC): 0.125 µg/mL (≈ 0.429 µM)
- MFC ([4]; E. floccosum, n = 6, read-out: MFC, row MIC50): 0.06 µg/mL (≈ 0.206 µM)
- MFC ([4]; E. floccosum, n = 6, read-out: MFC, row MIC90): 0.125 µg/mL (≈ 0.429 µM)
- MFC range (row MIC Range) ([5]; T. rubrum, n = 6): 0.03 to 0.125 µg/mL
- MFC ([5]; T. rubrum strain 1967, read-out: MFC): 0.125 µg/mL (≈ 0.429 µM)
- MFC ([5]; T. rubrum strain 2098, read-out: MFC): 0.06 µg/mL (≈ 0.206 µM)
- MFC ([5]; T. rubrum strain 2246, read-out: MFC): 0.06 µg/mL (≈ 0.206 µM)
- MFC ([5]; T. rubrum strain 8063, read-out: MFC): 0.06 µg/mL (≈ 0.206 µM)
- MFC ([5]; T. rubrum strain 8071, read-out: MFC): 0.06 µg/mL (≈ 0.206 µM)
- MFC ([5]; T. rubrum strain 8092, read-out: MFC): 0.03 µg/mL (≈ 0.103 µM)
- MFC ([5]; T. rubrum, n = 6, read-out: MFC, row MIC50): 0.06 µg/mL (≈ 0.206 µM)
- MFC ([5]; T. rubrum, n = 6, read-out: MFC, row MIC90): 0.125 µg/mL (≈ 0.429 µM)
- MFC range (row MIC Range) ([6]; T. mentagrophytes, n = 6): 0.06 to 0.125 µg/mL
- MFC ([6]; T. mentagrophytes strain 2124, read-out: MFC): 0.125 µg/mL (≈ 0.429 µM)
- MFC ([6]; T. mentagrophytes strain 2125, read-out: MFC): 0.125 µg/mL (≈ 0.429 µM)
- MFC ([6]; T. mentagrophytes strain 2127, read-out: MFC): 0.06 µg/mL (≈ 0.206 µM)
- MFC ([6]; T. mentagrophytes strain 2128, read-out: MFC): 0.125 µg/mL (≈ 0.429 µM)
- MFC ([6]; T. mentagrophytes, n = 6, read-out: MFC, row MIC50): 0.125 µg/mL (≈ 0.429 µM)
- MFC ([6]; T. mentagrophytes, n = 6, read-out: MFC, row MIC90): 0.125 µg/mL (≈ 0.429 µM)
- MFC Range [7]: 0.03 to 0.125 µg/mL
- MFC ([7]; read-out: MFC, row MIC50): 0.06 µg/mL (≈ 0.206 µM)
- MFC ([7]; read-out: MFC, row MIC90): 0.125 µg/mL (≈ 0.429 µM)
